Article PMC11900932 (International Journal of Molecular Sciences, 2025)
Structures can show the parent of a compound that is named as a salt. Where two headings read alike, the source gives them in different places.

Experiments:
SARS-CoV-2 3CL^pro [1] = target: T1, SARS-CoV-2 3CL^pro (Severe acute respiratory syndrome coronavirus 2, UniProt P0DTD1); details: cited from earlier work
SARS-CoV 3CL^pro = SARS-CoV 3CL^pro (Severe acute respiratory syndrome coronavirus, UniProt P0C6X7); assay: biochemical
MERS-CoV 3CL^pro = MERS-CoV 3CL^pro (Middle East respiratory syndrome-related coronavirus, UniProt K9N7C7); assay: biochemical
Sequence of MERS-CoV 3CL^pro (K9N7C7 3248-3553 limits assumed): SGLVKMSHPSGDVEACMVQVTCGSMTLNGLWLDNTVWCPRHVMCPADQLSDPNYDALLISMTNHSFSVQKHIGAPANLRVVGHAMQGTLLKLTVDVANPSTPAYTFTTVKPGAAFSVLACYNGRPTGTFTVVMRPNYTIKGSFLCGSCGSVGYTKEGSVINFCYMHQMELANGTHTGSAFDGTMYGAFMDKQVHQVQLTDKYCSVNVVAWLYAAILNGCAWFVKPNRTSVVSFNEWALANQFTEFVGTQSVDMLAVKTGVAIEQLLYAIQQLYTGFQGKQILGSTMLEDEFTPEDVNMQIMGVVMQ

SARS-CoV-2-S pseudovirus = assay: microbe, parasite or virus in culture; assay type: cell-based; details: for IC50: Pseudovirus, read-out: IC50, pseudovirus activity inhibition
CTSB = target: T2, CTSB (Homo sapiens, UniProt P07858); assay: Host protease selectivity test, Cathepsin B; assay type: biochemical; details: 5 and 50 μM
T2 construct: purchased SinoBiological, Beijing, China
Procedure: Target selectivity tests toward host proteases were conducted based on our previous method. Cathepsin B (CTSB) (SinoBiological, Beijing, China) at a final concentration of 100 nM was prepared in buffer with 20 mM sodium acetate, 1 mM EDTA, and 2 mM DTT (pH 5.5) and incubated for 30 min at 30 °C. Next, the working solution of CTSB was diluted into 500 pM with the reaction buffer (100 mM MES pH 6.0, 1 mM EDTA, 2 mM DTT, and 0.01% Tween-20) and kept for 30 min. Then, the FRET substrate Z-Phe-Arg-AMC (NJPeptide, Nanjing, China) at 5 μM was added to activate the enzymatic reaction. The fluorescence signals were measured using a Cytation 5 plate reader (BioTek, Winooski, VT, USA) at 360 nm (excitation)/460 nm (emission) for 20 min.

CTSL = target: T3, CTSL (Homo sapiens, UniProt P07711); assay: Host protease selectivity test, Cathepsin L; assay type: biochemical; details: 5 and 50 μM
T3 construct: purchased SinoBiological, Beijing, China
T3 sequence (P07711 114-333): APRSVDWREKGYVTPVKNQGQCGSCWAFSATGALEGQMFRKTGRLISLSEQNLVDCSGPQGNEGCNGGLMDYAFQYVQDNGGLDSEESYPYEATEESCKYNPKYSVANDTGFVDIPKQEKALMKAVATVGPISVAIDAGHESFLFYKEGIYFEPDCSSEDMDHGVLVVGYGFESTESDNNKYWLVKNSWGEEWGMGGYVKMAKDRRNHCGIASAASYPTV
Procedure: Cathepsin L (CTSL) (SinoBiological, Beijing, China) at a final concentration of 100 nM in buffer (20 mM sodium acetate, 1 mM EDTA, and 5 mM DTT, pH 5.5) was activated by incubation at 30 °C. Then, the working solution of CTSL was diluted into 300 pM with the reaction buffer and incubated for 30 min. The addition of 5 μM FRET substrate Z-Phe-Arg-AMC (NJPeptide, Nanjing, China) initiated the reaction. The fluorescence signals at 360 nm (excitation)/460 nm (emission) were measured for 20 min with the Cytation 5 plate reader (BioTek, Winooski, VT, USA).

CTRC = target: T4, CTRC (Homo sapiens, UniProt Q99895); assay: Host protease selectivity test, Chymotrypsin; assay type: biochemical; details: 5 and 50 μM
T4 construct: purchased Novoprotein, Suzhou, China
T4 sequence (Q99895 30-268): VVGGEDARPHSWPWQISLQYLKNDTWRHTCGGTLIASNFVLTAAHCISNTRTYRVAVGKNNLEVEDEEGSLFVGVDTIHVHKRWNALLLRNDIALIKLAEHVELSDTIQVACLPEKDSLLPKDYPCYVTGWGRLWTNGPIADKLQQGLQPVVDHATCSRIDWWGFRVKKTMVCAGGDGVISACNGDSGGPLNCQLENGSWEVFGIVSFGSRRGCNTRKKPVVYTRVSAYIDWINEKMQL
Procedure: Chymotrypsin (CTRC) (Novoprotein, Suzhou, China) at a final concentration of 5 μg/mL was incubated in a buffer solution containing 50 mM Tris, 10 mM CaCl2, and 150 mM NaCl at pH 7.5 for a period of 30 min. Subsequently, trypsin was added to the mixture at the same concentration (5 μg/mL) and incubated for an additional 60 min at 37 °C. Following this, the reaction was initiated by adding 100 µM of the Succinyl-Ala-Ala-Pro-Phe-p-nitroanilide substrate (NJPeptide, Nanjing, China), and the mixture was incubated for another 60 min at 37 °C. Finally, the activity of CTRC was quantified by measuring the absorbance at 405 nm using a Cytation 5 plate reader (BioTek, Winooski, VT, USA).

TMPRSS2 = target: T5, TMPRSS2 (Homo sapiens, UniProt O15393); assay: Host protease selectivity test, TMPRSS2; assay type: biochemical
T5 construct: purchased MedChemExpress, Shanghai, China
T5 sequence (O15393 whole entry): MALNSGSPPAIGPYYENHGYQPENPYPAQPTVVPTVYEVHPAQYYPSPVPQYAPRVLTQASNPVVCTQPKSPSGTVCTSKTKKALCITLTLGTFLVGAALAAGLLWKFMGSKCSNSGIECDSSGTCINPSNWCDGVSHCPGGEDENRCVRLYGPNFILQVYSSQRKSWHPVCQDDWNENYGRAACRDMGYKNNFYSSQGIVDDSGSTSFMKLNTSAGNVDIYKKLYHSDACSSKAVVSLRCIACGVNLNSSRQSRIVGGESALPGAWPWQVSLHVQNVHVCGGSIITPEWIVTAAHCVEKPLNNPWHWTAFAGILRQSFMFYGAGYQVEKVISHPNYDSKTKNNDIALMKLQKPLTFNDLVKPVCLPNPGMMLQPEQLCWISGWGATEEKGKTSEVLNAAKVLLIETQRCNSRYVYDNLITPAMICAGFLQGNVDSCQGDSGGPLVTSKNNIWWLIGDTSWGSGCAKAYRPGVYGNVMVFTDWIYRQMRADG
Procedure: TMPRSS2 protease at the concentration of 5 nM (MedChemExpress, Shanghai, China) was incubated with compounds in the reaction buffer (50 mM Tris-HCl, 1 mM CaCl2, 0.1% Tween 20, pH 8.0) for 1 h at 37 °C. Then, 45 μM substrate Boc-GIn-Ala-Arg-AMC (NJPeptide, Nanjing, China) was added to initiate the reaction. Fluorescence intensity was detected using a Cytation 5 plate reader at 380 nm (excitation)/460 nm (emission) for 1.5 h.

in vitro = details: human
[2] = Cell viability assay (CCK-8) on Vero-E6 cells; details: African green monkey
SARS-CoV-2 3CL^pro [3] = target: T1, SARS-CoV-2 3CL^pro; assay: biochemical
SARS-CoV-2 3CL^pro [4] = target: T1, SARS-CoV-2 3CL^pro; assay type: biochemical
[5] = test system: SARS-CoV-2-S pseudovirus Omicron; assay: microbe, parasite or virus in culture; assay type: cell-based
[6] = test system: SARS-CoV-2-S pseudovirus Delta; assay: microbe, parasite or virus in culture; assay type: cell-based
[7] = test system: SARS-CoV-2-S pseudovirus Gamma; assay: microbe, parasite or virus in culture; assay type: cell-based
[8] = target: SARS-CoV-2 S-RBD/ACE2 interaction (Severe acute respiratory syndrome coronavirus 2, UniProt P0DTC2); assay type: cell-based
human ACE2 = human ACE2 (Homo sapiens, UniProt Q9BYF1); assay: SPR binding to immobilized ACE2
Sequence of human ACE2 (Q9BYF1 18-805): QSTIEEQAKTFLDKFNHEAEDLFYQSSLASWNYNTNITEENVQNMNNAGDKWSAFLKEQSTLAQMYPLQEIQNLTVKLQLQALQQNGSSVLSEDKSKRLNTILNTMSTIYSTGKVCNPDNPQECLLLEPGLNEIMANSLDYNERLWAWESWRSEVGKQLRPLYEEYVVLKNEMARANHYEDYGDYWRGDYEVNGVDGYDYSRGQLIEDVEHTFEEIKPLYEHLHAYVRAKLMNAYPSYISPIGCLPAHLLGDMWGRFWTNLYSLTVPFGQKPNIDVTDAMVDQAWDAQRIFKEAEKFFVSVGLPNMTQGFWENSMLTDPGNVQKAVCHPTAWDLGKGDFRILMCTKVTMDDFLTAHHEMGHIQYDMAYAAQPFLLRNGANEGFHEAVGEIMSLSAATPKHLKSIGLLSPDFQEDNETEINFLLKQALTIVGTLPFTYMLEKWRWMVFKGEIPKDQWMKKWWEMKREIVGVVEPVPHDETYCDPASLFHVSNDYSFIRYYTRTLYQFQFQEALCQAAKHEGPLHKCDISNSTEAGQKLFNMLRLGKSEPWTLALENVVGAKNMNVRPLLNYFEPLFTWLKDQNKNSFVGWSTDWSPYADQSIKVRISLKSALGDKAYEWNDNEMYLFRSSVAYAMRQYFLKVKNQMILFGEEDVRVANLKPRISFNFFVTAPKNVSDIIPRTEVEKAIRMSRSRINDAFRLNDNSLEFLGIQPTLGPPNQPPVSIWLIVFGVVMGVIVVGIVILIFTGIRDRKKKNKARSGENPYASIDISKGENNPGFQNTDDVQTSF
Procedure: ACE2 and S-RBD were separately immobilized onto a CM5 chip via amine coupling in sodium acetate buffer (pH 4.0 for ACE2 and pH 5.5 for S-RBD) at a flow rate of 10 μL/min. After the chip surface was activated with NHS and EDC, ACE2 and S-RBD were injected at concentrations of 20 μg/mL and 30 μg/mL, respectively, and the surface was blocked using ethanolamine. […] All measurements were performed in PBS buffer (0.05% Tween-20, 5% DMSO, pH 7.4) at 25 °C, with corrections applied to address refractive index shifts and data drift. The binding affinities were quantified by fitting the interaction data to a Langmuir 1:1 binding model using Biacore Evaluation software.

SARS-CoV-2 S-RBD = SARS-CoV-2 S-RBD (Severe acute respiratory syndrome coronavirus 2, UniProt P0DTC2); assay: biochemical; assay type: binding
SARS-CoV-2 3CL^pro [9] = target: T1, SARS-CoV-2 3CL^pro
[10] = parameters: method as in doi:10.1177/009286150103500134; details: cited from earlier work
SARS-CoV-2 3CL^pro [11] = target: T1, SARS-CoV-2 3CL^pro; details: cited from earlier work; remark: listed apart in the source

In the case of `O=c1cc(-c2ccc(O)cc2)oc2cc(O)cc(O)c12` [Apigenin], the IC50 (SARS-CoV-2 3CL^pro [1]) is given as 84.9 µM.
With `NC(CO)C(=O)NNCc1ccc(O)c(O)c1O` (centres unmarked) [Benserazide hydrochloride] the IC50 (SARS-CoV 3CL^pro) was 3.04 ± 0.4 µM, the IC50 (MERS-CoV 3CL^pro) was 8.81 ± 0.34 µM and the “inhibition of pseudovirus entry into host cells” value (SARS-CoV-2-S pseudovirus) was “lacked the capacity to inhibit pseudovirus entry into host cells”. For the same compound, the IC50 (SARS-CoV-2-S pseudovirus) was over 200 µM, the “inhibition of CTSB” value (CTSB) was “neither compound significantly inhibited” and the “inhibition of CTSL” value (CTSL) was “neither compound significantly inhibited”. The “inhibitory activity against CTRC” value (CTRC) was “did not”, the “inhibition of TMPRSS2” value (TMPRSS2) was “neither compound significantly inhibited” and the CC50 (in vitro) was over 200 µM. It also gave a CC50 at 24 h [2] of over 100 µM.
`Oc1cc(O)c2c(c1)O[C@H](c1ccc(O)c(O)c1)[C@H](O)C2` [Epicatechin] showed an IC50 (SARS-CoV-2 3CL^pro [3]) of 3.3 µM.
In the case of `O=C(c1cc(O)c(O)c(O)c1)c1ccc(O)c(O)c1O` [Exifone], the inhibition at 5 µM (SARS-CoV-2 3CL^pro [3]; read-out: inhibition of SARS-CoV-2 3CLpro activity) is reported as over 50%, the type of inhibition (SARS-CoV-2 3CL^pro [4]) is reported as “non-competitive inhibition with an allosteric mechanism” and the IC50 (SARS-CoV 3CL^pro) is reported as 3.36 ± 0.08 µM. The IC50 (MERS-CoV 3CL^pro) was 13.9 ± 0.38 µM, the IC50 (SARS-CoV-2-S pseudovirus) was 76.5 ± 32.6 µM and the IC50 [5] was 55.1 ± 6.15 µM. For the same compound, the IC50 [6] was 150 ± 5.06 µM, the IC50 [7] was 159 ± 4.95 µM and the “S-RBD binding signal on Vero-E6 cells” value [8] was “marked reduction in the S-RBD binding signal”. The Kd (human ACE2) was 1.93 µM, the kd (human ACE2; SPR, immobilized ACE2) was 0.00045 s⁻¹ and the Kd (SARS-CoV-2 S-RBD) was 0.818 µM. For the same compound, the “inhibition of CTSB” value (CTSB) was “neither compound significantly inhibited”, the “inhibition of CTSL” value (CTSL) was “neither compound significantly inhibited” and the “inhibitory activity against CTRC” value (CTRC) was “significant inhibitory activity”. For the same compound, the “inhibition of TMPRSS2” value (TMPRSS2) was “neither compound significantly inhibited”, the TDI effect (SARS-CoV-2 3CL^pro [9]) was “did not exhibit a significant TDI effect” and the “reason for withdrawal from the market” value [10] was “hepatotoxicity”. It also gave a CC50 (in vitro) of over 200 µM and a CC50 at 24 h ([2]; Vero-E6 cells) of over 100 µM.
`O=C(/C=C/c1ccc(O)cc1)c1ccc(O)cc1O` [Isoliquiritigenin] showed an IC50 (SARS-CoV-2 3CL^pro [3]) of 73.9 µM.
`COc1cc(-c2oc3cc(O)cc(O)c3c(=O)c2O[C@@H]2O[C@H](CO[C@@H]3O[C@@H](C)[C@H](O)[C@@H](O)[C@H]3O)[C@@H](O)[C@H](O)[C@H]2O)cc(O)c1O` [Laricitrin 3-rutinoside] gave an IC50 (SARS-CoV-2 3CL^pro [3]) of 3.82 µM.
In the case of `COC(=O)[C@@H](Cc1ccc(O)c(O)c1)OC(=O)/C=C/c1ccc(O)c(O)c1` [Methyl rosmarinate], the IC50 (SARS-CoV-2 3CL^pro [11]) is given as 2.5 µM.
With `C[C@@H]1O[C@@H](OC[C@H]2O[C@@H](Oc3c(-c4cc(O)c(O)c(O)c4)oc4cc(O)cc(O)c4c3=O)[C@H](O)[C@@H](O)[C@@H]2O)[C@H](O)[C@H](O)[C@H]1O` [Myricetin-3-O-rutinoside] the IC50 (SARS-CoV-2 3CL^pro [3]) was 0.85 µM.
For `C/C=C1/[C@H](O[C@@H]2O[C@H](CO)[C@@H](O)[C@H](O)[C@H]2O)OC=C(C(=O)OC)[C@H]1CC(=O)OCCc1ccc(O)c(O)c1` [Oleuropein], the IC50 (SARS-CoV-2 3CL^pro [11]) is listed as 3.5 µM.
For `O=c1cc(-c2ccc(O)c(O)c2)oc2cc(O)cc(O)c12` [luteolin], the IC50 (SARS-CoV-2 3CL^pro [1]) is listed as 74.9 µM.
